Legend:
[1] = tested on: precision cut liver slices (PCLS); test: Albumin production by precision cut liver slices cultured on CMR2 (albumin ELISA); format: cell-based; conditions: PCLS on CMR2, fat, fat+LPS or BSA vehicle for 48 h after a 24 h rest period; FIG. 27
Procedure: (§1) Liver tissue was placed in a 10 cm dish containing Hanks Buffered Saline Solution (HBSS+, Lonza, BE10-508F). Four to eight mm cores of liver tissue were made using a Stiefel Biopsy Punch. Cores were then transferred to a metal mould and submerged in 2.5-3.0% low gelling temperature agarose (Sigma, A9414) and then placed on ice for 2-5 minutes.
(§2) Once set, the cores in agarose were super-glued to a vibratome mounting stage and submersed in the media chamber in ice cold HBSS+prior to cutting on a Leica VT1200 S fully automated vibrating blade microtome. Liver tissue cores were cut at a speed of 0.3 mm/see, and an amplitude 2 mm and thickness (step size) of 250 μm. Slices having a thickness of between 200-400 μm can be used.
Slices were transferred to 3 μm, 8 μm or 100 μm pore inserts provided in static (Griener) or CMR tissue culture plates. […]
100 μl of the slice culture media diluted 1:250 was removed from wells comprising slices in either a static culture plate, a unidirectional system or the CMR culture plate apparatus which was rocked using a rocking apparatus as described herein. The media was used to quantify albumin release using the Rat Albumin ELISA Quantitation Set (catalogue number E110-125) or Human Albumin ELISA Quantitation Set (catalogue number E80-129) following manufacturer's instructions.

[2] = tested on: precision cut liver slices (PCLS); test: Expression of fibrosis genes in precision cut liver slices cultured on CMR2; format: cell-based; conditions: for expression of fibrosis genes (pro-collagen 1, aSMA, TIMP1): PCLS on CMR2, stimulated for 72 h after a 24 h rest period, FIG. 31
Procedure: as §1, §2
Slices were transferred to 3 μm, 8 μm or 100 μm pore inserts provided in static (Griener) or CMR tissue culture plates. The CMR tissue culture plates of embodiments of the invention comprised either holes between adjacent wells or were rapid prototyped from CAD design to comprise slots between wells. The wells contained slice culture media. The slices were cultured under static, unidirectional or rocked conditions at 37° C. in 5% carbon dioxide in a humidified tissue culture incubator. Twelve or twenty-four well CMR tissue culture plates were used, as indicated.
The slice culture media comprised the following components: • Williams Medium E (Sigma, W4128) • 2% Heat Inactivated Fetal Bovine Serum (Gibco) • Penicillin-Streptomycin (Sigma, P0781) • L-glutamine (Sigma, G7513) • Pyruvate (Sigma, S8636) • 0.5 uM Insulin/transferrin selenium mix (Gibco 51500-056) • 0.1 uM dexamethasone (Sigma, D4902) Urea Assay (Universal Biologicals Cambridge)

[3] = PCLS on CMR2, 3 ng/ml TGFb1 for 48 h, compared to control (untreated), FIG. 26B

Lipopolysaccharide [LPS]
albumin production [1]: did not affect

transforming growth factor beta 1 [TGFb1]
expression of the fibrosis gene alpha-smooth muscle actin (aSMA) [2, 3]: induced expression | expression of the fibrosis gene collagen I [2, 3]: induced expression | expression of the fibrosis gene tissue inhibitor of metalloprotease 1 (TIMP1) [2, 3]: induced expression

transforming growth factor beta [TGFb]
expression of fibrosis genes (pro-collagen 1, aSMA, TIMP1) [2]: induce expression

B1: platelet derived growth factor b (protein, UniProt P01127 82-190, looked up)
Platelet-derived growth …: SLGSLTIAEPAMIAECKTRTEVFEISRRLIDRTNANFLVWPPCVEVQRCSGCCNNRNVQCRPTQVQLRPVQVRKIEIVRKKPIFKKATVTLEDHLACKCETVAAARPVT
modifications: homodimer
notes: fibrosis-stimulating factor added to liver slices
expression of fibrosis genes (pro-collagen 1, aSMA, TIMP1) [2]: induce expression
